Laboratory results taken from patent US20250032468A1, “OCULAR SURFACE TOPICAL ADMINISTRATION OF ROFLUMILAST FOR TREATMENT OF ANTERIOR AND RETINAL-VITREOUS CHAMBER OCULAR DISEASES” (IOLYX THERAPEUTICS, INC., priority 2023, published 2025).
Like-named read-outs stand apart in the source and are kept apart here.

Columns and labels:
[1] = 13-week repeated topical ocular administration toxicity study in rabbits (Example 11); conditions: for intraocular pressure: FIG. 15
Description: (§1) A study was conducted to evaluate toxicity outcomes of repeated topical ocular administration of roflumilast. Male and female New Zealand white rabbits (n=7 per group) were administered: (a) vehicle-based placebo three times a day; (b) a 0.1% w/v roflumilast formulation (Example 3) three times a day; (c) a 0.3% w/v roflumilast formulation (Example 3) three times a day; or (d) a 1.0% w/v roflumilast formulation (Example 3) three times a day. In the study, male and female New Zealand White rabbits received 13 weeks of topical treatment, three times a day, followed by a four-week recovery period, in four dose arms, 0%, 0.1%, 0.3%, and 1% concentration of roflumilast. In addition to regular safety and well-being checks, animals were given regular ophthalmic exams, measurement of weight, tonometry to test intraocular pressure, clinical chemistry and hematological evaluation, and other routine checks of health and well being. At the point of study termination, ocular tissues and major organs were tested for macro- and microscopic observation. […] Parameters evaluated included body weight, intraocular pressure (IOP), and central corneal thickness (CCT).

[2] = dog, in vivo
Description: (§2) In the study, male and female dogs (n=3M/3F per arm to week 13, 2M/2F to additional 4 week recovery) received 13 weeks of topical treatment, three times a day, followed by a four week recovery period, in four dose arms, 0%, 0.1%, 0.3%, and 1% concentration of roflumilast. In addition to regular safety and well-being checks, animals were given regular ophthalmic exams, measurement of weight, tonometry to test intraocular pressure, pachymetery to test corneal thickness, clinical chemistry and hematological evaluation, and other routine checks of health and well-being. At the point of study termination, ocular tissues and major organs were tested for macro- and microscopic observation.

[3] = tested on: PDE4 A, B, D; conditions: also printed as 0.07 ng/g; cited from earlier work
[4] = rabbit, in vivo
Description: as §1

[5] = 13-week repeated topical ocular administration study in dogs (Example 10)
Description: as §2

[6] = Ocular tissue concentration of roflumilast after 5 days topical ocular dosing (Example 8, Table 7); type: in vivo, Dutch belted rabbits
Description: Two unique animal studies were conducted to assess the concentration of roflumilast in various tissues following administration of different concentrations of Example 3. The concentration in various tissues was assessed following five days of administration of the following dosing regimens: (a) 1% w/v roflumilast three times a day (TID); (b) 0.3% w/v roflumilast three times a day (TID); or (c) 0.1% w/v roflumilast two times a day (BID). In one study encompassing (a) and (b), n=6 Dutch belted rabbits per dose arm were dosed topically three times per day according to arm on days 1 to 4, and on day 5, a single dose was given at hour 0. In a different study with the same methodologies and practices, n=21 Dutch belted rabbits represented in group (c) were dosed two times per day on days 1 to 4, and on day 5, a single dose was given at hour 0. […] In the original study conducted solely with arm (c), a dose curve was created using time points at 0.5, 2, 4, 8, and 24 hours. To reduce the number of animals in the second experiment, for group (a) and (b), only 0.5 and 8 hours were tested. FIG. 1 provides data for the concentration of roflumilast (ng/g) in the iris ciliary body (ICB) as a function of time following: (a) 1% w/v roflumilast administered three times a day; (b) 0.3% w/v roflumilast administered three times a day; or (c) 0.1% w/v roflumilast administered two times a day. FIG. 2 provides data for the concentration of roflumilast (ng/g) in the aqueous humor (AH) as a function of time following: (a) 1% w/v roflumilast administered three times a day; (b) 0.3% w/v roflumilast administered three times a day; or (c) 0.1% w/v roflumilast administered two times a day. FIG. 3 provides data for the concentration of roflumilast (ng/g) in the retina/choroid/retina pigment epithelium (RPE) as a function of time following: (a) 1% w/v roflumilast administered three times a day; (b) 0.3% w/v roflumilast administered three times a day; or (c) 0.1% w/v roflumilast administered two times a day. […] (Claveau, 2004) This ratio is shown at both 0.5 hours, closest to a Cmax time point, and 8 hrs, which would be a time point close to a redosing time point for a TID dosing.

[7] = Saturation concentration of roflumilast in the suspension formulation; type: physicochemical; conditions: formulation characteristic used in the simulation
Description: Computational modeling of topical ophthalmic roflumilast dosing was carried out using an ocular simulation computer program based on Matlab® (Mathworks, Natick, MA) programming language using a runtime Java® applet for a graphical user-friendly interface. Physiological and anatomic parameters for the ocular simulation were customized to model the pigmented rabbit eye, by entering appropriate volumes of distribution and surface areas of anterior and posterior compartment tissues. […] Based on these parameters, theoretical calculations were carried out for all simulations, while for matching concentrations with actual experimental data the model was used for comparison, fitting, and optimization.

[8] = Ocular pigment binding, equilibrium sepia melanin association (Covance, method by Koeberle et al.); type: in vitro ADME

For `O=C(Nc1c(Cl)cncc1Cl)c1ccc(OC(F)F)c(OCC2CC2)c1` [Roflumilast, N-(3,5-dichloropyrid-4-yl)-3-cyclopropylmethoxy-4-difluoromethoxybenzamide], the “major clinical or pathological findings in life or post-mortem” value ([1]; New Zealand White rabbits, 0.1%, 0.3%, 1% TID topical ocular, 13 weeks plus four-week recovery) was “no major test article related findings”, the intraocular pressure ([1]; rabbits, 0.1% w/v TID, day 28, only transiently, still within a normal range) was “higher” and the “systemic adverse effect on the eye or other organs (ophthalmic and other exams)” value ([1]; rabbits, 0.1%, 0.3%, 1.0% w/v TID) was “little to no systemic adverse effect”. The body weight ([1]; rabbits, all concentrations TID, compared to vehicle-based placebo, FIG. 14) was “did not lose weight”, the central corneal thickness ([1]; rabbits, all treatment groups, FIG. 16) was “substantially the same for all treatment groups” and the intraocular pressure ([1]; rabbits, all treatment groups, remaining days) was “substantially the same for all treatment groups”. For the same compound, the tolerability [2] was “well tolerated at all concentrations”, the “IC50 of t-cells for the PDE4 A, B, D targets” value [3] was 0.07 ng/mL and the tolerability [4] was “well tolerated at all concentrations”. For the same compound, the “major clinical or pathological findings in life or post-mortem” value ([5]; 0.1%, 0.3%, 1% TID topical ocular, 13 weeks plus 4 week recovery) was “no major test article related findings”, the “systemic adverse effect on the eye or other organs (ophthalmic and other exams)” value ([5]; 0.1%, 0.3%, 1.0% w/v TID) was “little to no systemic adverse effect” and the body weight ([5]; all concentrations TID, compared to vehicle-based placebo, FIG. 11) was “did not lose weight”. For the same compound, the central corneal thickness ([5]; all treatment groups over the duration of the study, FIG. 13) was “substantially consistent for all treatment groups”, the intraocular pressure ([5]; all treatment groups, only transient changes seen sporadically, FIG. 12) was “substantially the same for all treatment groups” and the “Ratio of Roflumilast Concentration to PDE4 IC50” value (from here on “Ratio … to PDE4 IC50”) ([6]; AH, 0.10% BID days 1-4, single dose day 5, 0.5 hrs post dose) was 53×. The “Ratio … to PDE4 IC50” value ([6]; AH, 0.10% BID days 1-4, single dose day 5, 8 hrs post dose) was 0×, the “Ratio … to PDE4 IC50” value ([6]; AH, 0.30% TID days 1-4, single dose day 5, 0.5 hrs post dose) was 143× and the “Ratio … to PDE4 IC50” value ([6]; AH, 0.30% TID days 1-4, single dose day 5, 8 hrs post dose) was 4×. The “Ratio … to PDE4 IC50” value ([6]; AH, 1.00% TID days 1-4, single dose day 5, 0.5 hrs post dose) was 476×, the “Ratio … to PDE4 IC50” value ([6]; AH, 1.00% TID days 1-4, single dose day 5, 8 hrs post dose) was 10× and the “Ratio … to PDE4 IC50” value ([6]; Cornea, 0.10% BID days 1-4, single dose day 5, 0.5 hrs post dose) was 2286×. For the same compound, the “Ratio … to PDE4 IC50” value ([6]; Cornea, 0.10% BID days 1-4, single dose day 5, 8 hrs post dose) was 509×, the “tissue levels relative to the IC50 level” value ([6]; ICB, AH, and retina/choroid/RPE, 0.3% and 1% TID) was “strong elevation in tissue levels above the IC50 level” and the “Ratio … to PDE4 IC50” value ([6]; ICB, 0.10% BID days 1-4, single dose day 5, 0.5 hrs post dose) was 66×. The “Ratio … to PDE4 IC50” value ([6]; ICB, 0.10% BID days 1-4, single dose day 5, 8 hrs post dose) was 2×, the “Ratio … to PDE4 IC50” value ([6]; ICB, 0.30% TID days 1-4, single dose day 5, 0.5 hrs post dose) was 247× and the “Ratio … to PDE4 IC50” value ([6]; ICB, 0.30% TID days 1-4, single dose day 5, 8 hrs post dose) was 9×. For the same compound, the “Ratio … to PDE4 IC50” value ([6]; ICB, 1.00% TID days 1-4, single dose day 5, 0.5 hrs post dose) was 534×, the “Ratio … to PDE4 IC50” value ([6]; ICB, 1.00% TID days 1-4, single dose day 5, 8 hrs post dose) was 22× and the “Ratio … to PDE4 IC50” value ([6]; RET/CHOR, 0.10% BID days 1-4, single dose day 5, 0.5 hrs post dose) was 15×. The “Ratio … to PDE4 IC50” value ([6]; RET/CHOR, 0.10% BID days 1-4, single dose day 5, 8 hrs post dose) was 5×, the “Ratio … to PDE4 IC50” value ([6]; RET/CHOR, 0.30% TID days 1-4, single dose day 5, 0.5 hrs post dose) was 91× and the “Ratio … to PDE4 IC50” value ([6]; RET/CHOR, 0.30% TID days 1-4, single dose day 5, 8 hrs post dose) was 14×. The “Ratio … to PDE4 IC50” value ([6]; RET/CHOR, 1.00% TID days 1-4, single dose day 5, 0.5 hrs post dose) was 167×, the “Ratio … to PDE4 IC50” value ([6]; RET/CHOR, 1.00% TID days 1-4, single dose day 5, 8 hrs post dose) was 52× and the “duration of terminal level therapeutic concentrations covering the relevant IC50” value ([6]; cornea, 0.1% BID four days plus single dose day 5, FIG. 5) was about 24 h. For the same compound, the saturation concentration [7] was 6 µg/mL and the ocular pigment binding [8] was “medium to high”.
